Test results from patent US10004701B2, “Methods and compositions for treating infection” (UNIVERSITY OF ROCHESTER, priority 2012, dated 2018).
Counter-ions that a name gives are not always drawn. Like-named read-outs stand apart in the source and are kept apart here.

Assays:
Assay in all cases: AK assay 384-well format, Prestwick library screening
[1] = test system: S. aureus strain USA300-0114; type: cell-based, Staphylococcus aureus; details: for fold induction at 50 µM: Staphylococcus aureus, USA300, 3 h
[2] = test system: A. baumannii strain 98-37-09; type: cell-based, Acinetobacter baumannii; details: for fold induction at 50 µM: Acinetobacter baumannii, 983709, 3 h
E. faecium = type: cell-based, Enterococcus faecium; details: for fold induction at 50 µM: Enterococcus faecium, 3 h
K. pneumoniae = type: cell-based, Klebsiella pneumoniae; details: for fold induction at 50 µM: Klebsiella pneumoniae, 3 h
E. coli = type: cell-based, Escherichia coli; details: for fold induction at 50 µM: Escherichia coli, 3 h
E. cloacae = type: cell-based, Enterobacter cloacae; details: for fold induction at 50 µM: Enterobacter cloacae, 3 h
P. aeruginosa = type: cell-based, Pseudomonas aeruginosa; details: for fold induction at 50 µM: Pseudomonas aeruginosa, 3 h
[3] = read-out: AK-based Prestwick Library Screening Results, S. aureus (increase in extracellular AK activity)
[4] = read-out: AK-based Prestwick Library Screening Results, A. baumannii (increase in extracellular AK activity)
[5] = read-out: AK-based Prestwick Library Screening Results, E. faecium (increase in extracellular AK activity)
[6] = read-out: AK-based Prestwick Library Screening Results, K. pneumoniae (increase in extracellular AK activity)
[7] = read-out: AK-based Prestwick Library Screening Results, E. coli (increase in extracellular AK activity)
[8] = read-out: AK-based Prestwick Library Screening Results, E. cloacae (increase in extracellular AK activity)
[9] = read-out: AK-based Prestwick Library Screening Results, P. aeruginosa (increase in extracellular AK activity)
[10] = 50 μM final drug concentration, […]
[11] = 50 μM final drug concentration, 384-well format, cutoff for positive-scoring molecules 3-fold increase, read-out: AK-based Prestwick Library Screening Results, S. aureus (increase in extracellular AK activity)
[12] = 50 μM final drug concentration, 384-well format, cutoff for positive-scoring molecules 3-fold increase, read-out: AK-based Prestwick Library Screening Results, A. baumannii (increase in extracellular AK activity)
[13] = 50 μM final drug concentration, 384-well format, cutoff for positive-scoring molecules 3-fold increase, read-out: AK-based Prestwick Library Screening Results, E. faecium (increase in extracellular AK activity)
[14] = 50 μM final drug concentration, 384-well format, cutoff for positive-scoring molecules 3-fold increase, read-out: AK-based Prestwick Library Screening Results, K. pneumoniae (increase in extracellular AK activity)
[15] = 50 μM final drug concentration, 384-well format, cutoff for positive-scoring molecules 3-fold increase, read-out: AK-based Prestwick Library Screening Results, E. coli (increase in extracellular AK activity)
[16] = 50 μM final drug concentration, 384-well format, cutoff for positive-scoring molecules 3-fold increase, read-out: AK-based Prestwick Library Screening Results, E. cloacae (increase in extracellular AK activity)
[17] = 50 μM final drug concentration, 384-well format, cutoff for positive-scoring molecules 3-fold increase, read-out: AK-based Prestwick Library Screening Results, P. aeruginosa (increase in extracellular AK activity)
[18] = 50 μM final drug concentration, planktonic, cutoff for positive 3-fold increase, read-out: AK-based Prestwick Library Screening Results, S. aureus (fold increase in extracellular AK activity)
[19] = 50 μM final drug concentration, planktonic, cutoff for positive 3-fold increase, read-out: AK-based Prestwick Library Screening Results, A. baumannii (fold increase in extracellular AK activity)
[20] = 50 μM final drug concentration, planktonic, cutoff for positive 3-fold increase, read-out: AK-based Prestwick Library Screening Results, E. faecium (fold increase in extracellular AK activity)
[21] = 50 μM final drug concentration, planktonic, cutoff for positive 3-fold increase, read-out: AK-based Prestwick Library Screening Results, K. pneumoniae (fold increase in extracellular AK activity)
[22] = 50 μM final drug concentration, planktonic, cutoff for positive 3-fold increase, read-out: AK-based Prestwick Library Screening Results, E. coli (fold increase in extracellular AK activity)
[23] = 50 μM final drug concentration, planktonic, cutoff for positive 3-fold increase, read-out: AK-based Prestwick Library Screening Results, E. cloacae (fold increase in extracellular AK activity)
[24] = 50 μM final drug concentration, planktonic, cutoff for positive 3-fold increase, read-out: AK-based Prestwick Library Screening Results, P. aeruginosa (fold increase in extracellular AK activity)

SMILES: CN(C/C=C/c1ccccc1)Cc1cccc2ccccc12 [Naftifine hydrochloride]
- fold induction at 50 µM ([1]; planktonic S. aureus, 50 μM final drug concentration, positive cutoff 3-fold increase, read-out: AK-based Prestwick library screening result, S. aureus (fold increase in extracellular AK activity)): 0.8
- fold induction at 50 µM ([2]; planktonic A. baumannii, 50 μM final drug concentration, positive cutoff 3-fold increase, read-out: AK-based Prestwick library screening result, A. baumannii (fold increase in extracellular AK activity)): 1.1
- fold induction at 50 µM (E. faecium; planktonic E. faecium, 50 μM final drug concentration, positive cutoff 3-fold increase, read-out: AK-based Prestwick library screening result, E. faecium (fold increase in extracellular AK activity)): 1
- fold induction at 50 µM (K. pneumoniae; planktonic K. pneumoniae, 50 μM final drug concentration, positive cutoff 3-fold increase, read-out: AK-based Prestwick library screening result, K. pneumoniae (fold increase in extracellular AK activity)): 0.7
- fold induction at 50 µM (E. coli; planktonic E. coli, 50 μM final drug concentration, positive cutoff 3-fold increase, read-out: AK-based Prestwick library screening result, E. coli (fold increase in extracellular AK activity)): 1
- fold induction at 50 µM (E. cloacae; planktonic E. cloacae, 50 μM final drug concentration, positive cutoff 3-fold increase, read-out: AK-based Prestwick library screening result, E. cloacae (fold increase in extracellular AK activity)): 1
- fold induction at 50 µM (P. aeruginosa; planktonic P. aeruginosa, 50 μM final drug concentration, positive cutoff 3-fold increase, read-out: AK-based Prestwick library screening result, P. aeruginosa (fold increase in extracellular AK activity)): 0.8

SMILES: COc1ccccc1N1CCN(CC(O)COc2cccc3ccccc23)CC1 (stereo not shown) [Naftopidil dihydrochloride]
- fold induction at 50 µM ([1]; 50 μM final drug concentration, cutoff for positive-scoring molecules 3-fold increase, read-out: AK-based Prestwick Library Screening Results, S. aureus (fold increase in extracellular AK activity)): 0.5
- fold induction at 50 µM ([2]; 50 μM final drug concentration, cutoff for positive-scoring molecules 3-fold increase, read-out: AK-based Prestwick Library Screening Results, A. baumannii (fold increase in extracellular AK activity)): 0.7
- fold induction at 50 µM (E. faecium; 50 μM final drug concentration, cutoff for positive-scoring molecules 3-fold increase, read-out: AK-based Prestwick Library Screening Results, E. faecium (fold increase in extracellular AK activity)): 0.8
- fold induction at 50 µM (K. pneumoniae; 50 μM final drug concentration, cutoff for positive-scoring molecules 3-fold increase, read-out: AK-based Prestwick Library Screening Results, K. pneumoniae (fold increase in extracellular AK activity)): 0.6
- fold induction at 50 µM (E. coli; 50 μM final drug concentration, cutoff for positive-scoring molecules 3-fold increase, read-out: AK-based Prestwick Library Screening Results, E. coli (fold increase in extracellular AK activity)): 0.9
- fold induction at 50 µM (E. cloacae; 50 μM final drug concentration, cutoff for positive-scoring molecules 3-fold increase, read-out: AK-based Prestwick Library Screening Results, E. cloacae (fold increase in extracellular AK activity)): 0.9
- fold induction at 50 µM (P. aeruginosa; 50 μM final drug concentration, cutoff for positive-scoring molecules 3-fold increase, read-out: AK-based Prestwick Library Screening Results, P. aeruginosa (fold increase in extracellular AK activity)): 0.7

SMILES: Oc1ccc2c3c1O[C@H]1[C@@H](O)CC[C@@]4(O)[C@@H](C2)N(CC2CCC2)CC[C@]314 [Nalbuphine hydrochloride]
- fold induction at 50 µM [1, 3]: 0.7
- fold induction at 50 µM [2, 4]: 0.9
- fold induction at 50 µM (E. faecium; [5]): 0.9
- fold induction at 50 µM (K. pneumoniae; [6]): 0.7
- fold induction at 50 µM (E. coli; [7]): 0.9
- fold induction at 50 µM (E. cloacae; [8]): 1.2
- fold induction at 50 µM (P. aeruginosa; [9]): 0.8

SMILES: C=CCN1CC[C@]23c4c5ccc(O)c4O[C@H]2C(=O)CC[C@@]3(O)[C@H]1C5 [Naloxone hydrochloride]
- fold induction at 50 µM [1, 3]: 0.7
- fold induction at 50 µM [2, 4]: 0.8
- fold induction at 50 µM (E. faecium; [5]): 0.8
- fold induction at 50 µM (K. pneumoniae; [6]): 0.6
- fold induction at 50 µM (E. coli; [7]): 0.9
- fold induction at 50 µM (E. cloacae; [8]): 1.1
- fold induction at 50 µM (P. aeruginosa; [9]): 0.8

SMILES: C[C@]12CC[C@H]3[C@@H](CCC4=CC(=O)CC[C@@H]43)[C@@H]1CC[C@@H]2O [Nandrolone]
- fold induction at 50 µM ([1]; planktonic S. aureus, 50 μM final drug concentration, […], read-out: AK-based Prestwick library screening result, S. aureus (fold increase in extracellular AK activity)): 0.7
- fold induction at 50 µM ([2]; planktonic A. baumannii, 50 μM final drug concentration, […], read-out: AK-based Prestwick library screening result, A. baumannii (fold increase in extracellular AK activity)): 0.8
- fold induction at 50 µM (E. faecium; planktonic E. faecium, 50 μM final drug concentration, […], read-out: AK-based Prestwick library screening result, E. faecium (fold increase in extracellular AK activity)): 1
- fold induction at 50 µM (K. pneumoniae; planktonic K. pneumoniae, 50 μM final drug concentration, […], read-out: AK-based Prestwick library screening result, K. pneumoniae (fold increase in extracellular AK activity)): 0.7
- fold induction at 50 µM (E. coli; planktonic E. coli, 50 μM final drug concentration, […], read-out: AK-based Prestwick library screening result, E. coli (fold increase in extracellular AK activity)): 0.9
- fold induction at 50 µM (E. cloacae; planktonic E. cloacae, 50 μM final drug concentration, […], read-out: AK-based Prestwick library screening result, E. cloacae (fold increase in extracellular AK activity)): 1
- fold induction at 50 µM (P. aeruginosa; planktonic P. aeruginosa, 50 μM final drug concentration, […], read-out: AK-based Prestwick library screening result, P. aeruginosa (fold increase in extracellular AK activity)): 0.9

SMILES: C=C1[C@H]2C[C@@]3([C@@H]1O)[C@@H](C[C@@H]2O)[C@]12[C@@H]4C[C@H]3[C@H]1N(CC)C[C@]4(C)CC[C@@H]2O [Napelline]
- AK-based Prestwick Library Screening Results, S. aureus (fold increase in extracellular AK activity) [1, 10]: 1.4
- AK-based Prestwick Library Screening Results, A. baumannii (fold increase in extracellular AK activity) [2, 10]: 1.0
- AK-based Prestwick Library Screening Results, E. faecium (fold increase in extracellular AK activity) (E. faecium; [10]): 1.0
- AK-based Prestwick Library Screening Results, K. pneumoniae (fold increase in extracellular AK activity) (K. pneumoniae; [10]): 1.0
- AK-based Prestwick Library Screening Results, E. coli (fold increase in extracellular AK activity) (E. coli; [10]): 1.3
- AK-based Prestwick Library Screening Results, E. cloacae (fold increase in extracellular AK activity) (E. cloacae; [10]): 3.6
- AK-based Prestwick Library Screening Results, P. aeruginosa (fold increase in extracellular AK activity) (P. aeruginosa; [10]): 1.1

SMILES: c1ccc2c(CC3=NCCN3)cccc2c1 [Naphazoline hydrochloride]
- fold induction at 50 µM [1, 11]: 1
- fold induction at 50 µM [2, 12]: 1.1
- fold induction at 50 µM (E. faecium; [13]): 1.1
- fold induction at 50 µM (K. pneumoniae; [14]): 0.8
- fold induction at 50 µM (E. coli; [15]): 1.3
- fold induction at 50 µM (E. cloacae; [16]): 1.5
- fold induction at 50 µM (P. aeruginosa; [17]): 1

SMILES: COc1ccc2cc([C@H](C)C(=O)O)ccc2c1 [Naproxen]
- fold induction at 50 µM [1, 11]: 0.8
- fold induction at 50 µM [2, 12]: 1.1
- fold induction at 50 µM (E. faecium; [13]): 1
- fold induction at 50 µM (K. pneumoniae; [14]): 0.9
- fold induction at 50 µM (E. coli; [15]): 1.2
- fold induction at 50 µM (E. cloacae; [16]): 1.4
- fold induction at 50 µM (P. aeruginosa; [17]): 1

SMILES: O=C1C[C@@H](c2ccc(O)cc2)Oc2cc(O)cc(O)c21 [Naringenine]
- fold induction at 50 µM [1, 18]: 0.5
- fold induction at 50 µM [2, 19]: 1.2
- fold induction at 50 µM (E. faecium; [20]): 0.9
- fold induction at 50 µM (K. pneumoniae; [21]): 0.9
- fold induction at 50 µM (E. coli; [22]): 1.1
- fold induction at 50 µM (E. cloacae; [23]): 1.5
- fold induction at 50 µM (P. aeruginosa; [24]): 1

SMILES: C[C@@H]1O[C@@H](O[C@H]2[C@H](Oc3cc(O)c4c(c3)O[C@H](c3ccc(O)cc3)CC4=O)O[C@H](CO)[C@@H](O)[C@@H]2O)[C@H](O)[C@H](O)[C@H]1O [Naringin hydrate]
- fold induction at 50 µM [1, 18]: 1.2
- fold induction at 50 µM [2, 19]: 1.2
- fold induction at 50 µM (E. faecium; [20]): 1
- fold induction at 50 µM (K. pneumoniae; [21]): 0.9
- fold induction at 50 µM (E. coli; [22]): 1.3
- fold induction at 50 µM (E. cloacae; [23]): 1.2
- fold induction at 50 µM (P. aeruginosa; [24]): 1.3
